This is an account of results in patent US20240082192A1, “TOPICAL F[…] PREGABALIN” (EGIS GYÓGYSZERGYÁR ZRT., priority 2021, published 2024).

One series deals with Wistar rats. Put plainly: Chronic constriction injury (CCI) rat model of neuropathy, paw withdrawal threshold with electronic von Frey device. The conditions noted are these: 16.66 mg/kg. The class given is in vivo. The source says: Furthermore, based on the article Bennett G J, at al (Pain., A peripheral mononeuropathy in rat that produces disorders of pain sensation like those seen in man. 1988 April; 33(1):87-107) we have developed a method for the examination of the compositions of the present invention. Thus, we have examined the compositions according to the present invention also with a different model for measuring the alleviation of the peripheral neuropathic pain also. Namely, we have carried out examinations on rats using Chronic constriction injury (CCI) model. Three weeks following nerve injury rats were assessed for hind paw mechanical withdrawal thresholds. The paw withdrawal threshold (PWT) was determined with an Electronic von Frey device according to the modified up-down method of Dixon (Efficient analysis of experimental observations., Annu Rev Pharmacol Toxicol. 1980; 20:441-62). […] The method and results are shown in example 3 and on FIG. 9.
Thus, the compositions of the present invention are effective in the treatment of neuropathic pain. […]
Briefly, under isoflurane anesthesia small blunt dissection was made into the skin of rat right thigh then three loosely constrictive ligatures were placed around common sciatic nerve (chronic constriction injury CCI). Three weeks following nerve injury rats were assessed for hind paw mechanical withdrawal thresholds. […]

Another series relates to Mouse. The conditions noted are these: topical 2.5% aqueous solution without other ingredients; cited from earlier work.
A further series concerns human patient. The following applies: same aqueous solution; cited from earlier work.
The conditions of series [1]: compositions containing 1 and 3% of pregabalin; cited from earlier work.
A short description of series [2]: Pharmacokinetic studies, blood level of pregabalin after oral or topical administration.

Molecules are shown by their SMILES.

Consider `CC(C)C[C@H](CN)CC(=O)O` [pregabalin], for which the “reduction of hypersensitivity after oral administration” value with Wistar rats is reported as “not able to reduce hypersensitivity”. In the series on Mouse, the “alleviating effect 6 hours after administration” value was “the effect essentially disappeared” and the “time of maximum alleviating effect” value was 1 h. In addition, the “duration of reduction of neuropathic pain” value in the series on human patient was 6 h. In addition, the “time after which the pain alleviation effect decreased” value in series [1] was 1.5 to 2 h. Moreover, in series [2], the “amount entering the bloodstream during topical treatment” value is “very small amounts”.
